# Assay results: US10377753B2, “Substituted 4-azaindoles and their use as GluN2B receptor modulators” (Janssen Pharmaceutica NV, priority 2015, dated 2019)
# Target: cloned human NR1/NR2B ion channels (Homo sapiens (Human), UniProt Q05586+Q13224)
# Test: HNR2BC: effects of test articles on cloned human NR1/NR2B ion channels expressed in mammalian cells (FLIPR calcium flux)
# Assay type: cell-based
# Settings: cloned human NR1/NR2B ion channels, Table 5
# In short: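 Compounds were added to dye-loaded cells for 5 min with fluorescence monitored for agonism, followed by co-agonists (glutamate ~EC80, glycine 10 μM saturating) for 5 min. Cells stably expressed inducible human NR1/NR2B, and the buffer was pH 7.4. The FLIPR Ca2+ flux signal was normalized against control wells.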
# cloned human NR1/NR2B ion channels, sequence (Q13224 27-1484, other chains not shown): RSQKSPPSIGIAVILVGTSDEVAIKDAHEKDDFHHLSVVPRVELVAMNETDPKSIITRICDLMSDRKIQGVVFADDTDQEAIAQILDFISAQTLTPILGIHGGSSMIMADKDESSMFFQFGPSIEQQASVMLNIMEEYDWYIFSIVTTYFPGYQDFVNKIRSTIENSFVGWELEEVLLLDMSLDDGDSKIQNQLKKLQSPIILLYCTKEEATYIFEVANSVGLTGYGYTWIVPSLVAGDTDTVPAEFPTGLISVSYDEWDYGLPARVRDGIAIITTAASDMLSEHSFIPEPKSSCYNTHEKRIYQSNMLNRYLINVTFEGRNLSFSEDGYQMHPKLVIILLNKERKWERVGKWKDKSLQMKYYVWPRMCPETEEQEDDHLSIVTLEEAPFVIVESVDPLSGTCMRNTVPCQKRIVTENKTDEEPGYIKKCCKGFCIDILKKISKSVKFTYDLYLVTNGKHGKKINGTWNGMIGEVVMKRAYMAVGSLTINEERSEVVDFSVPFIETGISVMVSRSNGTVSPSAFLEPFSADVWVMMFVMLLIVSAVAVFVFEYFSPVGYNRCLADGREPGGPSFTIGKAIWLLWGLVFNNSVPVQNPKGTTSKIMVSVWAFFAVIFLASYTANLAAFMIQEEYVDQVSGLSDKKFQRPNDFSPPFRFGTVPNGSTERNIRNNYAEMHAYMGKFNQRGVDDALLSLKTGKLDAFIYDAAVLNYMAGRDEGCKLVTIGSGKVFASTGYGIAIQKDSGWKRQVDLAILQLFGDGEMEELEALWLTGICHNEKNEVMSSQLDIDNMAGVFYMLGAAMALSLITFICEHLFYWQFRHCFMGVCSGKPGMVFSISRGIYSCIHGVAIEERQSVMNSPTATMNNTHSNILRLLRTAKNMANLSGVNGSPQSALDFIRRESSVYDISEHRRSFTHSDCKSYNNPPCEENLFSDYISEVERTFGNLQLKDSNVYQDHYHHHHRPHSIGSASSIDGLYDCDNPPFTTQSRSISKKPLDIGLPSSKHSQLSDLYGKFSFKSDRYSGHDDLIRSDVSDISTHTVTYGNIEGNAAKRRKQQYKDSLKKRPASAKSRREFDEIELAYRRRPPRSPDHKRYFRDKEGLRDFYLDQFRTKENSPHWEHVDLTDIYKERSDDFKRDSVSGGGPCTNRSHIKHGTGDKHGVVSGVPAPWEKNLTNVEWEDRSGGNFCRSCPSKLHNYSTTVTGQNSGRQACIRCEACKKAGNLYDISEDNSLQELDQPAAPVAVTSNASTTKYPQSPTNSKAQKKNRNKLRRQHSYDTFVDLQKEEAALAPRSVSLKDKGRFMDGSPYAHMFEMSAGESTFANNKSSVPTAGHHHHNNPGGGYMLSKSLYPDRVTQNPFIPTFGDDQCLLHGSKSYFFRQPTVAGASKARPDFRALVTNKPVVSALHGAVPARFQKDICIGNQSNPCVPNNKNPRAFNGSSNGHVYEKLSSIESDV
row,SMILES,IC50 [µM]
1,"Cc1cn(CC(=O)N2CC(F)(F)C2)c2cc(-c3ccc(F)c(F)c3)cnc12 [Example 621, 1-(3,3-Difluoroazetidin-1-yl)-2-[6-(3,4-difluorophenyl)-3-methyl-pyrrolo[3,2-b]pyridin-1-yl]ethanone]",0.631
2,"Cc1c(F)ccc(-c2cnc3c(C)cn(CC(=O)N(C)C)c3c2)c1F [Example 622, 2-[6-(2,4-Difluoro-3-methyl-phenyl)-3-methyl-pyrrolo[3,2-b]pyridin-1-yl]-N,N-dimethyl-acetamide]",0.1
3,"Cc1cn(CC(=O)N2CCCC2)c2cc(-c3cc(F)cc(F)c3)cnc12 [Example 623, 2-[6-(3,5-Difluorophenyl)-3-methyl-pyrrolo[3,2-b]pyridin-1-yl]-1-pyrrolidin-1-yl-ethanone]",0.0158
4,"Cc1c(F)ccc(-c2cnc3c(C)cn(CC(=O)N4CCCC4)c3c2)c1F [Example 624, 2-[6-(2,4-Difluoro-3-methyl-phenyl)-3-methyl-pyrrolo[3,2-b]pyridin-1-yl]-1-pyrrolidin-1-yl-ethanone]",0.0794
5,"CCN(C)C(=O)Cn1cc(C)c2ncc(-c3ccc(F)c(C)c3F)cc21 [Example 625, 2-[6-(2,4-Difluoro-3-methyl-phenyl)-3-methyl-pyrrolo[3,2-b]pyridin-1-yl]-N-ethyl-N-methyl-acetamide]",0.1
6,"Cc1c(F)ccc(-c2cnc3c(C)cn(CC(=O)N4CC(F)(F)C4)c3c2)c1F [Example 626, 1-(3,3-Difluoroazetidin-1-yl)-2-[6-(2,4-difluoro-3-methyl-phenyl)-3-methyl-pyrrolo[3,2-b]pyridin-1-yl]ethanone]",0.631
7,"Cc1c(F)ccc(-c2cnc3c(C)cn(CC(=O)N4CCC4)c3c2)c1F [Example 627, 1-(Azetidin-1-yl)-2-[6-(2,4-difluoro-3-methyl-phenyl)-3-methyl-pyrrolo[3,2-b]pyridin-1-yl]ethanone]",0.158
8,"Cc1cn(CC(=O)N(C)C)c2cc(-c3ccc(Cl)s3)cnc12 [Example 628, 2-[6-(5-Chloro-2-thienyl)-3-methyl-pyrrolo[3,2-b]pyridin-1-yl]-N,N-dimethyl-acetamide]",0.1
9,"Cc1c(F)ccc(-c2cnc3c(C)cn(CC(=O)N4CC(F)C4)c3c2)c1F [Example 629, 2-[6-(2,4-Difluoro-3-methyl-phenyl)-3-methyl-pyrrolo[3,2-b]pyridin-1-yl]-1-(3-fluoroazetidin-1-yl)ethanone]",0.0398
10,"CCN(C)C(=O)Cn1cc(C)c2ncc(-c3ccc(C)s3)cc21 [Example 630, N-Ethyl-N-methyl-2-[3-methyl-6-(5-methyl-2-thienyl)pyrrolo[3,2-b]pyridin-1-yl]acetamide]",0.251
11,"Cc1ccc(-c2cnc3c(C)cn(CC(=O)N4CCCC4)c3c2)s1 [Example 631, 2-[3-Methyl-6-(5-methyl-2-thienyl)pyrrolo[3,2-b]pyridin-1-yl]-1-pyrrolidin-1-yl-ethanone]",0.158
12,"Cc1ccc(-c2cnc3c(C)cn(CC(=O)N4CC(F)(F)C4)c3c2)s1 [Example 632, 1-(3,3-Difluoroazetidin-1-yl)-2-[3-methyl-6-(5-methyl-2-thienyl)pyrrolo[3,2-b]pyridin-1-yl]ethanone]",0.2
13,"Cc1ccc(-c2cnc3c(C)cn(CC(=O)N4CCC4)c3c2)s1 [Example 633, 1-(Azetidin-1-yl)-2-[3-methyl-6-(5-methyl-2-thienyl)pyrrolo[3,2-b]pyridin-1-yl]ethanone]",0.0501
14,"Cc1ccc(-c2cnc3c(C)cn(CC(=O)N4CC(F)C4)c3c2)s1 [Example 634, 1-(3-Fluoroazetidin-1-yl)-2-[3-methyl-6-(5-methyl-2-thienyl)pyrrolo[3,2-b]pyridin-1-yl]ethanone]",0.631
15,"Cc1cn(CC(=O)N2CC(F)C2)c2cc(-c3cc(F)cc(F)c3)cnc12 [Example 635, 2-[6-(3,5-Difluorophenyl)-3-methyl-pyrrolo[3,2-b]pyridin-1-yl]-1-(3-fluoroazetidin-1-yl)ethanone]",0.316
16,"Cc1cn(CC(=O)N2CC(F)C2)c2cc(-c3ccc(Cl)s3)cnc12 [Example 636, 2-[6-(5-Chloro-2-thienyl)-3-methyl-pyrrolo[3,2-b]pyridin-1-yl]-1-(3-fluoroazetidin-1-yl)ethanone]",0.158
17,"Cc1ccc(-c2cnc3c(C)cn(CC(=O)N(C)C)c3c2)s1 [Example 637, N,N-Dimethyl-2-[3-methyl-6-(5-methyl-2-thienyl)pyrrolo[3,2-b]pyridin-1-yl]acetamide]",0.316
18,"Cc1cn(CC(=O)N2CC(F)C2)c2cc(-c3ccccc3F)cnc12 [Example 638, 1-(3-Fluoroazetidin-1-yl)-2-[6-(2-fluorophenyl)-3-methyl-pyrrolo[3,2-b]pyridin-1-yl]ethanone]",0.126
19,"CN(C)C(=O)Cn1ccc2ncc(-c3ccc(C(F)F)s3)cc21 [Example 639, 2-[6-[5-(Difluoromethyl)-2-thienyl]pyrrolo[3,2-b]pyridin-1-yl]-N,N-dimethyl-acetamide]",0.2
